According to US9086405B2, “Animal stroke model” (UNIVERSITY OF PRINCE EDWARD ISLAND, priority 2010, dated 2015):
“Also recorded” adds a separate entry of the source.

What was measured:
male Sprague-Dawley rats [1] = test: Suture-induced "permanent" (6-hour) MCAO, infarct volume by TTC staining; type: in vivo, rat; settings: for infarct size: p<0.05, FIG. 6
male Sprague-Dawley rats [2] = test: Suture-induced MCAO (30 minutes) followed by 5.5 hours of reperfusion, infarct volume by TTC staining; type: in vivo, rat; settings: for infarct size / neuroprotection (infarct volume): 5.5 hours reperfusion; for infarct size: p<0.05, FIG. 7; for neuroprotective effect (infarct volume): vs vehicle, FIG. 9; for neuroprotection (infarct volume): inosine 16 mg/kg after 30 mins of occlusion prior to suture removal

CC1=NN(c2ccccc2)C(=O)C1 [edaravone] was tested, and the infarct size (male Sprague-Dawley rats [1]; edaravone 10, 20 or 40 mg/kg i.v. 30 minutes prior to 6 hours of suture induced-MCAO, vs vehicle 50% DMSO in saline) was “significant decreases in infarct size; also recorded: significant levels of neuroprotection”, the infarct size (male Sprague-Dawley rats [2]; edaravone 5, 10 or 20 mg/kg i.v. after 30 minutes of MCAO (immediately prior to suture removal), vs 50% DMSO in saline) was “significant decreases in infarct size; also recorded: showed neuroprotective abilities” and the infarct size (male Sprague-Dawley rats [2]; edaravone 5, 10 or 20 mg/kg i.v. after 30 minutes of MCAO (immediately prior to suture removal), vs 50% DMSO in saline, listed as Edaravone) was “very powerful neuroprotection”.

Nc1nc2c(ncn2[C@@H]2O[C@H](CO)[C@@H](O)[C@H]2O)c(=O)[nH]1 [guanosine] was tested, and the infarct volume (male Sprague-Dawley rats [1]; guanosine 1, 2, 4, 8 or 16 mg/kg intraperitoneally 30 minutes prior to "permanent" (6-hour) occlusion, FIG. 8) was “decrease in infarct volume; also recorded: reduced infarct size”, the “neuroprotective effect (infarct volume)” value (male Sprague-Dawley rats [2]; guanosine 16 mg/kg injected 30 minutes (+30) after occlusion, immediately prior to suture removal) was “greatest benefit; also recorded: most prominent” and the “neuroprotective effect (infarct volume)” value (male Sprague-Dawley rats [2]; guanosine 16 mg/kg injected 60 minutes (+60) from start of MCAO, 30 minutes post-suture removal) was “significant benefit; also recorded: significant neuroprotection”. The infarct volume (male Sprague-Dawley rats [2]; guanosine 1, 2, 4, 8 or 16 mg/kg intraperitoneally 30 minutes after MCAO (prior to suture removal), 5.5 h reperfusion, FIG. 8) was “dose-dependent decrease in infarct volume”.

For OC[C@H]1O[C@@H](n2cnc3c(O)ncnc32)[C@H](O)[C@@H]1O [inosine], the “neuroprotection (infarct volume)” value (male Sprague-Dawley rats [2]; FIG. 8) was “No neuroprotection” and the “neuroprotection (infarct volume)” value (male Sprague-Dawley rats [2]; FIG. 8, listed as Inosine) was “did not cause neuroprotection”.

With estrogen the infarct size (male Sprague-Dawley rats [1]; estrogen 1×10-2 mg/kg i.v. 30 minutes prior to 6 hours of suture induced-MCAO, vs estrogen vehicle (saline)) was “significant decrease in infarct size; also recorded: significant levels of neuroprotection”, the infarct size (male Sprague-Dawley rats [2]; estrogen 1×10-2 mg/kg i.v. 30 minutes after MCAO (immediately prior to suture removal), vs saline) was “significant decrease in infarct size” and the infarct size (male Sprague-Dawley rats [2]; estrogen 1×10-2 mg/kg i.v. 30 minutes after MCAO (immediately prior to suture removal), vs saline, listed as Estrogen) was “showed neuroprotective abilities”.
